Measured values published in US20040242869A1, “Semicarbazides and their uses” (priority 2001, published 2004).

With `COc1ccc(-c2[nH]nc3c2C(=O)c2c(NC(=O)CN4CCC(CN)CC4)cccc2-3)cc1` [Example 9, 2-(4-aminomethyl-piperidin-1-yl)-N-[3-(4-methoxy-phenyl)-4-oxo-2,4-dihydro-indeno[1,2-c]pyrazol-5-yl]-acetamide] the melting point was > 300 °C.
With `COC(=O)Nc1cccc2c1C(=O)c1c-2n[nH]c1-c1ccc(OC)cc1` [Example 11, 3-(4-Methoxyphenyl)-5-methoxycarbonylamino-2H-indeno-[1,2-c]pyrazol-4-one] the melting point was > 300 °C.
With `COc1ccc(-c2[nH]nc3c2C(=O)c2c(NC(=O)NN4CCOCC4)cccc2-3)cc1` [Example 4, 1-[3-(4-methoxy-phenyl)-4-oxo-2,4-dihydro-indeno[1,2-c]pyrazol-5-yl]-3-morpholin-4-yl-urea] the melting point was 290 to 291 °C.
In the case of `COc1ccc(-c2[nH]nc3c2C(=O)c2c(NC(N)=O)cccc2-3)cc1` [Example 5, [3-(4-methoxy-phenyl)-4-oxo-2,4-dihydro-indeno[1,2-c]pyrazol-5-yl]-urea], the melting point is reported as 267 to 269 °C.
